# Measurements published in ChEMBL document CHEMBL1145277, “Discovery of 3,3-dimethyl-5-hydroxypipecolic hydroxamate-based inhibitors of aggrecanase and MMP-13” (Bioorg Med Chem Lett, 2005).
# Key:
# Cell line = assay: Inhibitory concentration against TNF-alpha release in LPS-stimulated human whole blood; format: functional, cell-based
# [1] = molecular target: Disintegrin and metalloproteinase domain-containing protein 17 (Homo sapiens, UniProt P78536); assay: Inhibitory concentration against TNF-alpha converting enzyme
# Sequence of Disintegrin and metalloproteinase domain-containing protein 17 (P78536 whole entry, the tested form may be a part): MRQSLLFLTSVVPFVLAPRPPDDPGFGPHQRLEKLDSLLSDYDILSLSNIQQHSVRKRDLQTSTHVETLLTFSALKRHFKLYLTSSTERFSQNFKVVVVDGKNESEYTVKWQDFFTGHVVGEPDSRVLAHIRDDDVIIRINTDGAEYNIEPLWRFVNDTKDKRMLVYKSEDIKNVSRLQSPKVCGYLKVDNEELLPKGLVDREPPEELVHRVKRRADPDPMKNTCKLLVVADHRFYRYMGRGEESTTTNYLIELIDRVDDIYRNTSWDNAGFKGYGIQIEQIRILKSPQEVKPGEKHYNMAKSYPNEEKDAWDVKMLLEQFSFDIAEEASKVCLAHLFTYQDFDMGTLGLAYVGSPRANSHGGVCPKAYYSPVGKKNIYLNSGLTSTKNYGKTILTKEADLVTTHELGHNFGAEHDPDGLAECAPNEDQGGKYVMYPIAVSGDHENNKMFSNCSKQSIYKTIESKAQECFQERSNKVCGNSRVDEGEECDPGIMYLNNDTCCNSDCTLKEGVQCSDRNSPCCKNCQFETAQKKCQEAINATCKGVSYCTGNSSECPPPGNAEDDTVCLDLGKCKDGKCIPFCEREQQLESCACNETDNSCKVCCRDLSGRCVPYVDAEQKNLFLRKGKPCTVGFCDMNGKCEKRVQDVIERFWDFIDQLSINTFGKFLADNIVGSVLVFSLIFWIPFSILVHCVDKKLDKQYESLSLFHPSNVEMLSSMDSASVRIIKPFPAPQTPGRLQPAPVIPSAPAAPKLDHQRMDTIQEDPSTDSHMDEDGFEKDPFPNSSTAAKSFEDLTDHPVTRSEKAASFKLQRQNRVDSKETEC
# [2] = Percent inhibition against Aggrecanase at 500 nM
# Interstitial collagenase = molecular target: T1, Interstitial collagenase (Homo sapiens, UniProt P03956); assay: Inhibitory concentration against Matrix metalloprotease-1 (MMP-1)
# T1 sequence (P03956 whole entry): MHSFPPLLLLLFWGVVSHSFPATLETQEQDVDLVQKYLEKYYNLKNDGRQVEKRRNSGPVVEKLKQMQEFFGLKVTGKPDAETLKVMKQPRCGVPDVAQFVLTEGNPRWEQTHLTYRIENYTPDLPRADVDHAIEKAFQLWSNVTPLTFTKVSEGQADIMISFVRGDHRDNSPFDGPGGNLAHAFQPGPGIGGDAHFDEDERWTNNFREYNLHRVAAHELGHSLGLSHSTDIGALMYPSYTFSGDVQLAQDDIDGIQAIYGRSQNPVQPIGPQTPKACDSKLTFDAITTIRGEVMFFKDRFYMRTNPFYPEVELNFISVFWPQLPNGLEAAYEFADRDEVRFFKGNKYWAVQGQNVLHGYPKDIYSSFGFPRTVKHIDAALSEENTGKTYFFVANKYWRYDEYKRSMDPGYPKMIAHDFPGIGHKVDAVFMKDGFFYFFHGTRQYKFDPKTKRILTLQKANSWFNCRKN
# Collagenase 3 = Collagenase 3 (Homo sapiens, UniProt P45452); assay: Inhibitory concentration against Matrix metalloprotease-13 (MMP-13)
# [3] = Inhibitory concentration against Aggrecanase
Compound,IC50 (Cell line) [µM],IC50 [1] [µM],inhibition [2] [%],IC50 (Interstitial collagenase) [µM],IC50 (Collagenase 3) [µM],IC50 [3] [µM]
Cc1ccc(COc2ccc(S(=O)(=O)N3C[C@H](O)CC(C)(C)[C@@H]3C(=O)NO)cc2)cc1,19.2,0.011,19,0.198,0.0012,
Cc1cccc(COc2ccc(S(=O)(=O)N3C[C@H](O)CC(C)(C)[C@@H]3C(=O)NO)cc2)c1,25.9,0.012,,0.773,0.0028,> 0.1
Cc1cnsc1COc1ccc(S(=O)(=O)N2C[C@H](O)CC(C)(C)[C@@H]2C(=O)NO)cc1,4.95,0.016,55,,,
CC1(C)C[C@@H](O)CN(S(=O)(=O)c2ccc(OCc3ccc(Br)cc3)cc2)[C@H]1C(=O)NO,7.7,0.01,,0.1,0.0014,> 0.1
CC1(C)C[C@@H](O)CN(S(=O)(=O)c2ccc(OCc3ccc(Cl)cc3Cl)cc2)[C@H]1C(=O)NO,31,0.019,,0.43,0.003,0.0021
CC1(C)C[C@@H](O)CN(S(=O)(=O)c2ccc(OCc3cccc(Br)c3)cc2)[C@H]1C(=O)NO,18.9,0.015,57,,,
Cc1ncccc1COc1ccc(S(=O)(=O)N2C[C@H](O)CC(C)(C)[C@@H]2C(=O)NO)cc1,2,0.0067,,,,0.091
CC1(C)C[C@@H](O)CN(S(=O)(=O)c2ccc(OCc3ccccc3Br)cc2)[C@H]1C(=O)NO,8.9,0.011,,0.715,0.008,0.016
CC1(C)C[C@@H](O)CN(S(=O)(=O)c2ccc(OCc3nccc4ccccc34)cc2)[C@H]1C(=O)NO,2.43,0.01,,0.29,0.053,> 0.1
CC1(C)C[C@@H](O)CN(S(=O)(=O)c2ccc(OCc3ccc(F)cc3Cl)cc2)[C@H]1C(=O)NO,10.2,,,0.592,0.0005,
CC1(C)C[C@@H](O)CN(S(=O)(=O)c2ccc(OCc3ccncc3Cl)cc2)[C@H]1C(=O)NO,10.2,,,1.1,0.019,0.018
CC1(C)C[C@@H](O)CN(S(=O)(=O)c2ccc(OCc3ccnc4ccccc34)cc2)[C@H]1C(=O)NO,0.95,,,0.17,0.0078,0.015

# Results, then the compound that gave them:
IC50 (Cell line) [µM],IC50 [1] [µM],inhibition [2] [%],IC50 (Interstitial collagenase) [µM],IC50 (Collagenase 3) [µM],IC50 [3] [µM],Compound
5.2,0.012,76,,,,Cc1nscc1COc1ccc(S(=O)(=O)N2C[C@H](O)CC(C)(C)[C@@H]2C(=O)NO)cc1
4.9,0.0073,,0.69,0.014,0.038,Cc1ccccc1COc1ccc(S(=O)(=O)N2C[C@H](O)CC(C)(C)[C@@H]2C(=O)NO)cc1
3.45,0.0073,,0.79,0.0065,0.04,Cc1ccc(F)cc1COc1ccc(S(=O)(=O)N2C[C@H](O)CC(C)(C)[C@@H]2C(=O)NO)cc1
1.1,0.0067,,1.5,0.036,0.067,CCc1ccccc1COc1ccc(S(=O)(=O)N2C[C@H](O)CC(C)(C)[C@@H]2C(=O)NO)cc1
5.48,0.0052,,0.255,0.0035,0.0027,Cc1cc(F)ccc1COc1ccc(S(=O)(=O)N2C[C@H](O)CC(C)(C)[C@@H]2C(=O)NO)cc1
1.4,0.0062,,5.1,0.0021,0.145,Cc1ccc(F)cc1COc1ccc(S(=O)(=O)N2C[C@H](O)CC[C@@H]2C(=O)NO)cc1
2.88,0.017,,0.679,0.0043,0.0039,Cc1c(F)cccc1COc1ccc(S(=O)(=O)N2C[C@H](O)CC(C)(C)[C@@H]2C(=O)NO)cc1
1.8,0.012,78,2.3,0.188,,CC(C)c1ccccc1COc1ccc(S(=O)(=O)N2C[C@H](O)CC(C)(C)[C@@H]2C(=O)NO)cc1
